Test results from US8563516B2, “Foxp3 peptide vaccine” (OncoTherapy Science, Inc., priority 2007, dated 2013).
“Also recorded” adds a separate entry of the source. Ends that are not written are not given here.

Assays:
[1] = system: peptide-pulsed T2 cells; assay: IFN-gamma ELISA on expanded CTL lines, HLA-A02 peptides; assay type: cell-based, human; conditions: expanded cells of positive wells, FIG. 3A-D, 3F
Protocol: (§1) CTLs were expanded in culture using a similar method as reported by Riddell, et al. (Walter et al., N Engl J Med 333(16): 1038-44, 1995; Riddell et al., Nat Med 2(2): 216-23, 1996 February). A total of 5×10^4 CTLs were resuspended in 25 ml of AIM-V/5% AS with 2 kinds of human B-lymphoblastoid cell lines, inactivated with MMC, in the presence of 40 ng/ml of anti-CD3 monoclonal antibody (Pharmingen). One day after initiating the cultures, 120 IU/ml of IL-2 were added to the cultures. The cultures were fed with fresh AIM-V/5% AS containing 30 IU/ml of IL-2 on days 5, 8 and 11.
(§2) To examine the specific CTL activity, IFN-gamma ELISPOT assay and IFN-gamma ELISA were performed. Briefly, peptide-pulsed A24-LCL, T2 cell (1×10^4/well) or the cells endogenously expressing Foxp3 and HLA molecule was prepared as a stimulator cells. Cultured CTL lines in 48 wells were used as a responder cells. IFN-gamma ELISPOT assay and IFN-gamma ELISA were performed under manufacture procedure.
(§3) These cells in the positive wells were expanded and performed IFN-gamma ELISA assay.

[2] = system: peptide-pulsed T2 cells; assay: IFN-gamma ELISPOT on CTLs induced with HLA-A0201 restricted Foxp3 peptides; assay type: cell-based, human; conditions: FIG. 2A/2B/2C
Description: (§4) Monocyte-derived dendritic cells (DCs) were used as antigen-presenting cells (APCs) to induce CTL responses against peptides presented on HLA. DCs were generated in vitro as described elsewhere (Horiguchi S. et al. Cancer Res. 59:2950-6). Specifically, peripheral blood mononuclear cells (PBMCs) isolated from normal volunteer (HLA-A*2402 and/or HLA-A*0201) with Ficoll-Plaque (Pharmacia) solution were separated by adherence to plastic tissue culture dish (Becton Dickinson) so as to enrich them for the monocyte fraction. The monocyte-enriched population was cultured in the presence of 1000 U/ml of GM-CSF (R&D System) and 1000 U/ml of IL-4 (R&D System) in AIM-V medium (Invitrogen) containing 2% heat-inactivated autologous serum (AS). After 7 days in the culture, the cytokine-generated DCs were pulsed with 20 mcg/ml of the synthesized peptides in the presence of 3 mcg/ml of beta2-microglobulin for 4 hrs at 20 degrees C. in AIM-V medium. These peptide-pulsed DCs were then inactivated with mitomycin C (MMC) (30 mcg/ml for 30 mins) and mixed at a 1:20 ratio with autologous CD8+ T cells, obtained by positive selection with CD8 Positive Isolation Kit (Dynal). These cultures were set up in 48-well plates (Corning); each well contained 1.5×10^4 peptide-pulsed DCs, 3×10^5 CD8+ T cells and 10 ng/ml of IL-7 (R&D System) in 0.5 ml of AIM-V/2% AS. Three days later, these cultures were supplemented with IL-2 (CHIRON) to a final concentration of 20 IU/ml. On day 7 and 14, the T cells were further restimulated with the peptide-pulsed autologous DCs. The DCs were prepared each time through the same procedure described above. CTL activity was tested against peptide-pulsed A24LCL cells or T2 cells after the 3rd round of peptide stimulation on day 21.
as §2
Resulting CTLs showing detectable specific CTL activity were shown in FIG. 2A, FIG. 2B and FIG. 2C when performed by IFN-gamma ELISPOT assay.

[3] = system: peptide-pulsed A24LCL cells or T2 cells; assay: In vitro CTL induction by peptide-loaded dendritic cells (summary statements); assay type: cell-based, human; conditions: for specific CTL activity: against peptide pulsed target cells; for establishment of CTLs: in vitro stimulation of T-cells by DCs loaded with peptide
Description: Confirmation of CTL inducibility can be accomplished by inducing antigen-presenting cells carrying human MHC antigens (for example, B-lymphocytes, macrophages, and dendritic cells), or more specifically dendritic cells derived from human peripheral blood mononuclear leukocytes, and after stimulation with the peptides, mixing with CD8-positive cells, and then measuring the IFN-gamma produced and released by CTL against the target cells. As the reaction system, transgenic animals that have been produced to express a human HLA antigen (for example, those described in BenMohamed L, Krishnan R, Longmate J, Auge C, Low L, Primus J, Diamond D J, Hum Immunol 61(8): 764-79, 2000 August, Related Articles, Books, Linkout Induction of CTL response by a minimal epitope vaccine in HLA A*0201/DR1 transgenic mice: dependence on HLA class II restricted T(H) response) can be used. For example, the target cells can be radiolabeled with ^51Cr and such, and cytotoxic activity can be calculated from radioactivity released from the target cells. Alternatively, it can be examined by measuring IFN-gamma produced and released by CTL in the presence of antigen-presenting cells that carry immobilized peptides, and visualizing the inhibition zone on the media using anti-IFN-gamma monoclonal antibodies.
as §4, §2

[4] = system: peptide-pulsed A24LCL cells; assay: IFN-gamma ELISA on expanded CTL lines, HLA-A24 peptides; assay type: cell-based, human; conditions: expanded cells of positive wells, FIG. 3E, 3G
Protocol: as §1, §2, §3

[5] = system: peptide-pulsed A24LCL cells; assay: IFN-gamma ELISPOT on CTLs induced with HLA-A2402 restricted Foxp3 peptides; assay type: cell-based, human; conditions: FIG. 1A/1B
Description: as §4, §2
CTLs for the peptides derived from Foxp3 protein were generated according to the method described in the “Materials and Methods”, supra.

[6] = system: BALB/c mice; assay: Immunogenicity of epitope peptides in BALB/c mice (IFN-gamma ELISPOT on splenocytes); assay type: in vivo
Protocol: IFA-conjugated peptide or IFA only were injected s.c. into BALB/c mice on day 0 and 7. On day 14, splenocytes of vaccinated mice were harvested and used as responder cells. 1×10^4 RLmale1 cells pulsed corresponding peptide (solid square), or no peptide (open square) were used as stimulator cells for IFN-gamma ELISPOT assay. Vaccination using Foxp3-252_h (A) and Foxp3-252_m (B) were performed into five mice (M1-M5) and IFA without any peptide injection were performed into three mice (N1-N3) as control in each assay.
For priming the peptide-specific CTLs, immunization was given using 100 mcl vaccine mixture, which contains 50 mcl HLA-A24 restricted peptide and 50 mcl IFA per mouse. The vaccine was injected s.c. into the right flank of mice for the first immunization on day 0 and in the left flank for the second on the day 7. On day 14, splenocytes from vaccinated mice were used as the responder cells, and RLmale1 cells pulsed with or without peptides were used as the stimulator cells for IFN-gamma ELISPOT assay.
To evaluate the immunogenicity of Foxp3-9-252 peptide for BALB/c mice, immunization with human Foxp3-9-252 peptide (Foxp3-252_h; KLSAMQAHL)(SEQ ID NO: 17) and mouse Foxp3-9-252 peptide (Foxp3-252_m; KLGAMQAHL) (SEQ ID NO: 89) were performed, respectively. After second injection of peptide, peptide specific CTL activity was determined by IFN-gamma ELISPOT assay (FIG. 5).

[7] = system: 4T1 breast cancer cells; assay: In vivo antitumor effects of vaccination, 4T1 tumor; parameters: species or system BALB/c mice; conditions: 4T1 s.c. day 0, vaccination day 3 and 10, compared with control mice, FIG. 6
Protocol: 1×10^5 4T1 breast cancer cell lines were injected into BALB/c mice on day 0. IFA-conjugated with Foxp3-252_h (-open circle-), Foxp3-252_m (-solid square-), no peptide (-solid triangle-) was injected on day 3 and 10. As control of normal tumor growth, non-vaccinated mice (-x-) were also prepared in this assay.
4T1 cells (1×10^5 per mouse) were injected s.c. into the right flank of BALB/c mice on day 0. Vaccination was done on days 3 and 10 using hFoxp3-252 (KLSAMQAHL: SEQ ID NO: 17) or mFoxp3-252 (KLGAMQAHL: SEQ ID NO: […]) IFA-conjugated peptides.
To examine the antitumor effects with peptide vaccination targeted Foxp3, in vivo therapeutic setting was attempted by using 4T1 tumor cells and BALB/c mice. The 4T1 breast cancer cells were injected s.c. into BALB/c mice on day 0, and then vaccination was done on these mice 3 and 10 days after the tumor challenge.

[8] = system: 293T that transfected both Foxp3 and HLA-A02; assay: Specific CTL activity against target cells expressing Foxp3 and HLA-A02; assay type: cell-based, human
Protocol: as §2
The established CTL clone raised against these peptides were examined for their ability to recognize the target cells endogenously expressing Foxp3 and HLA-A*24 or 02. Specific CTL activity against 293T transfected both full length of Foxp3 gene and HLA-A*24 or 02 molecule, which is specific model for the target cells endogenously express Foxp3 and HLA-A*24 or 02, was tested using the CTL lines raised by Foxp3-A02-9-390 (SEQ ID NO: 15) and Foxp3-A02-9-252 (SEQ ID NO: 17) as effector cells. […] Furthermore, these peptides were epitope peptides, which can utilize vaccine targeting Foxp3 expressed T-regs.

| Substance | IFN-gamma production of CTL lines stimulated with peptide, compared with the control [1] | IFN-gamma production of CTLs stimulated with peptide, compared with the control [2] | specific CTL activity [3] | establishment of CTLs [3] | IFN-gamma production of CTL lines stimulated with peptide, compared with the control [4] | IFN-gamma production of CTLs stimulated with peptide, compared with the control [5] | mice with peptide specific CTL response ([6]; IFA-conjugated peptide s.c. day 0 and 7, splenocytes day 14, RLmale1 stimulator cells, FIG. 5) | induction of epitope specific CTLs in vivo ([6]; vaccination of BALB/c mice, discussion) | tumor growth / antitumor effect ([7]; listed as Foxp3-252_m) | tumor growth / antitumor effect ([7]; listed as mFoxp3-252) | specific CTL activity of CTL lines raised by peptide ([8]; against 293T transfected with both Foxp3 and HLA-A02, FIG. 4A/4B) | specific CTL activity against controls ([8]; controls of FIG. 4A/4B) |
| --- | --- | --- | --- | --- | --- | --- | --- | --- | --- | --- | --- | --- |
| ALLQDRPHFM (peptide vaccine) [SEQ ID NO 27] | potent IFN-gamma production | potent IFN-gamma production | significant and specific CTL activity | CTLs were successfully established |  |  |  |  |  |  |  |  |
| GPLPhLQALL (GPLPHLQALL; not fully specified (residue 5); printed as GPLPhLQALL) [SEQ ID NO 67] |  |  | significant and specific CTL activity | CTLs were successfully established | potent IFN-gamma production | potent IFN-gamma production |  |  |  |  |  |  |
| KLGAMQAHL (peptide vaccine) [SEQ ID NO 88, mouse Foxp3-9-252 peptide] |  |  |  |  |  |  | one of five | could induce epitope specific CTLs in vivo | tumor growth apparently reduced; also recorded: Significant difference of tumor growth suppression | obviously anti-tumor effects |  |  |
| SLHKCFVRV (peptide vaccine) [SEQ ID NO 15] | potent IFN-gamma production | potent IFN-gamma production | significant and specific CTL activity | CTLs were successfully established |  |  |  |  |  |  | high specific CTL activity | did not show significant specific CTL activity |
| SLNPmPPSQL (chain 1 SLNPMPPSQL; chain 2 SLNPMPPSQL; not fully specified (some residues)) [SEQ ID NO 74] |  |  | significant and specific CTL activity | CTLs were successfully established | potent IFN-gamma production | potent IFN-gamma production |  |  |  |  |  |  |
